Converted amounts (≈) assume the structure as drawn. Square brackets hold non-standard residues; d marks the D form. Peptide text beside a SMILES is read from it. * marks the point of attachment. ξ: configuration not given here. Phe(4-guanidino) = N=C(N)Nc1ccc(C[C@H](N)C(=O)O)cc1; Bip = N[C@@H](Cc1ccc(-c2ccccc2)cc1)C(=O)O; ξpGlu = O=C1CCC(C(=O)O)N1; Agmatine = N=C(N)NCCCCN*; Orn = NCCC[C@H](N)C(=O)O
test system: S. aureus (ATCC 29213); experiment: Bactericidal activity at MIC after dilution of the antibacterial (FIG. 2); format: cell-based, Staphylococcus aureus; conditions: treatment at its MIC

| Compound | mode of action (regrowth after dilution of the antibacterial) |
| --- | --- |
| CC(=O)NC[C@H]1CN(c2ccc(N3CCOCC3)c(F)c2)C(=O)O1 [Linezolid, reference compound] | bacteriostatic |

test system: MRSA (ATCC 33591); experiment: MIC determination by broth microdilution vs. MRSA (ATCC 33591); format: cell-based, Staphylococcus aureus; conditions: Staphylococcus aureus
Method: Using a sterile loop, 3 to 5 isolated colonies of bacteria of the same morphological appearance are selected from the overnight agar plate. The colonies are transferred into a conical flask containing 5 mL of liquid medium (i.e. Mueller-Hinton broth). The broth is incubated at 37° C. in a shaker at 220 rpm until it reaches a turbidity that is equal to the turbidity of a McFarland Standard 0.5 (correspond to 1×10^8 cfu/mL). This culture growth step will require 1-2 hours depending on the bacteria tested.
During this pause period, an antibacterial dilution is prepared. Therefore an antibacterial stock solution is diluted in Mueller-Hinton broth. The concentration of DMSO is kept at 5%. 100 μL of the antibacterial solution are dispensed into the first well of a row. 50 μL of medium containing 0.5% of DMSO are dispensed to the rest of the wells. A 2-fold serial dilution is achieved by transferring 50 μL from the first well (containing the highest concentration of antibacterial) into the second well, and continuing like this until the 10th well in the row. The final 50 μL are discarded so that every well has 50 μL of each antibacterial dilution.
The 11th well was used as the growth control well (medium with bacterial inoculums, no antibacterial) while the 12th well was the sterility control well (medium only).
The bacterial suspension prepared above is mixed thoroughly, and diluted by a factor of 1:100 in the sterile medium. Each well and the growth control well is inoculated with 50 μL of the bacterial suspension. […] To the sterility control well 50 μL of sterile medium are added in place of the bacterial suspension. 10 μL aliquot from the growth control well is removed immediately after inoculating the plate and pipetted it into a sterile Eppendorf tube holding 990 μL of sterile broth. It is mixed well by vortexing. This suspension is further diluted (1:10) by pipetting 100 μL into 900 μL of sterile broth and mixing it well. 100 μL of each of the two dilutions are plated onto two different antibacterial-free agar plates. A sterile cell spreader is used to spread the liquid. Then the plate is sealed with a transparent adhesive film. The microtiter plate and agar plates are incubated at 37° C. for 16-20 hours or until satisfactory growth is obtained. The colonies on the agar plate are counted the next day to verify that the right number of cfu was inoculated. The plate is agitated in the SpectraMax spectrophotometer for 90 s and the OD600 for all the wells in the plate is recorded.

| Compound | MIC [µM] |
| --- | --- |
| N=C(N)NCCCCNC(=O)CN(Cc1ccc(-c2ccccc2)cc1)C(=O)[C@H](CCCNC(=N)N)NC(=O)[C@@H](N)Cc1ccc(-c2ccccc2)cc1 [Compound 10] | 3.12 (≈ 2.29 µg/mL) |
| N=C(N)NCCCCNC(=O)CN(Cc1ccc(-c2ccccc2)cc1)C(=O)[C@@H](CCCNC(=N)N)NC(=O)[C@H](N)Cc1ccc(-c2ccccc2)cc1 [Compound 11] | 12.5 (≈ 9.16 µg/mL) |

same assay, conditions: Staphylococcus aureus; MRSA (ATCC 33591); read-out: MIC

| Compound | MIC [µM] |
| --- | --- |
| N=C(N)NCCCCNC[C@H](Cc1ccc(-c2ccccc2)cc1)NC(=O)[C@H](CCCNC(=N)N)NC(=O)[C@@H](N)Cc1ccc(-c2ccccc2)cc1 [Compound 27] | 6.25 (≈ 4.49 µg/mL) |
| N=C(N)NCCCCNC(=O)[C@H](Cc1ccc(-c2ccccc2)cc1)NC(=O)[C@H](CCCNC(=N)N)NC(=O)[C@H](Cc1ccc(-c2ccccc2)cc1)NC(=O)C1CCC(=O)N1 (some centres unmarked) [Compound 24] ([ξpGlu][Bip]R[Bip]-Agmatine) | 12.5 (≈ 10.6 µg/mL) |
| N=C(N)NCCCCNC(=O)[C@H](Cc1ccc(-c2ccccc2)cc1)NC(=O)C[C@H](CCCNC(=N)N)NC(=O)[C@@H](N)Cc1ccc(-c2ccccc2)cc1 [Compound 20] | 6.25 (≈ 4.67 µg/mL) |
| N=C(N)NCCCCNC(=O)[C@H](Cc1ccc(-c2ccccc2)cc1)NC[C@H](CCCNC(=N)N)NC(=O)[C@@H](N)Cc1ccc(-c2ccccc2)cc1 [Compound 28] | 12.5 (≈ 8.99 µg/mL) |
| CN(C(=O)[C@H](CCCNC(=N)N)NC(=O)[C@@H](N)Cc1ccc(-c2ccccc2)cc1)[C@@H](Cc1ccc(-c2ccccc2)cc1)C(=O)NCCCCNC(=N)N [Compound 18] | 6.25 (≈ 4.67 µg/mL) |
| CC(C)(C)c1ccc(-c2ccc(C[C@H](NC(=O)[C@H](CCCNC(=N)N)NC(=O)[C@@H](N)Cc3ccc(-c4ccc(C(C)(C)C)cc4)cc3)C(=O)NCCCCNC(=N)N)cc2)cc1 [Compound 26] | 12.5 (≈ 10.6 µg/mL) |
| N=C(N)NCCCCNC(=O)[C@@H](Cc1ccc(-c2ccccc2)cc1)NC(=O)[C@H](CCCNC(=N)N)NC(=O)[C@@H](N)Cc1ccc(-c2ccccc2)cc1 [Compound 2] | 12.5 (≈ 9.16 µg/mL) |
| C/N=C(/NC)NCCC[C@H](NC(=O)[C@@H](N)Cc1ccc(-c2ccccc2)cc1)C(=O)N[C@@H](Cc1ccc(-c2ccccc2)cc1)C(=O)NCCCCNC(=N)N [Compound 15] | 12.5 (≈ 9.51 µg/mL) |
| N=C(N)NCCC[C@H](NC(=O)[C@@H](N)Cc1ccc(-c2ccccc2)cc1)C(=O)N[C@@H](Cc1ccc(-c2ccccc2)cc1)C(=O)NCCCCNC(N)=O [Compound 5] | 25 (≈ 18.3 µg/mL) |
| N=C(N)NCCCCNC(=O)[C@H](Cc1ccc(-c2ccccc2)cc1)NC(=O)[C@H](Cc1ccc(NC(=N)N)cc1)NC(=O)[C@@H](N)Cc1ccc(-c2ccccc2)cc1 [Compound 17] (H-[Bip]-[Phe(4-guanidino)]-[Bip]-Agmatine) | 6.25 (≈ 4.88 µg/mL) |
| N=C(N)NCCCCNC(=O)[C@H](Cc1ccc(-c2ccccc2)cc1)NC(=O)[C@H](CCCNC(=N)N)NC[C@@H](N)Cc1ccc(-c2ccccc2)cc1 [Compound 29] | 3.12 (≈ 2.25 µg/mL) |
| N=C(N)NCCCCNC(=O)[C@H](Cc1ccc(Cl)cc1)NC(=O)[C@H](CCCNC(=N)N)NC(=O)[C@@H](N)Cc1ccc(-c2ccccc2)cc1 [Compound 12] | 12.5 (≈ 8.64 µg/mL) |
| N=C(N)NCCCCNC(=O)[C@H](Cc1ccc(-c2ccccc2)cc1)NC(=O)[C@H](CCCNC(=N)N)NC(=O)[C@@H](N)Cc1ccc(Cl)cc1 [Compound 22] | 25 (≈ 17.3 µg/mL) |
| N=C(N)NCCCCNC(=O)[C@H](Cc1ccc(-c2ccccc2)cc1)NC(=O)[C@H](CCCCNC(=N)N)NC(=O)[C@@H](N)Cc1ccc(-c2ccccc2)cc1 [Compound 19] | 6.25 (≈ 4.67 µg/mL) |
| N=C(N)NCCCCNC(=O)[C@H](Cc1ccc(-c2ccccc2)cc1)NC(=O)CN(CCCNC(=N)N)C(=O)[C@@H](N)Cc1ccc(-c2ccccc2)cc1 [Compound 21] | 6.25 (≈ 4.58 µg/mL) |
| CCCCCCCCCC(=O)N[C@@H](Cc1ccc(-c2ccccc2)cc1)C(=O)N[C@@H](CCCNC(=N)N)C(=O)N[C@@H](Cc1ccc(-c2ccccc2)cc1)C(=O)NCCCCNC(=N)N [Compound 25] | 12.5 (≈ 11.1 µg/mL) |
| N=C(N)NCCC[C@H](NC(=O)[C@@H](N)Cc1ccc(-c2ccccc2)cc1)C(=O)N[C@@H](Cc1ccc(-c2ccccc2)cc1)C(=O)N[C@H]1CC[C@H](NC(=N)N)CC1 [Compound 7] | 6.25 (≈ 4.74 µg/mL) |
| N=C(N)NCCCCNC(=O)[C@H](Cc1ccc(-c2ccccc2)cc1)NC(=O)[C@H](CCCCN)NC(=O)[C@@H](N)Cc1ccc(-c2ccccc2)cc1 [Compound 13] (H-[Bip]-Lys-[Bip]-Agmatine) | 6.25 (≈ 4.41 µg/mL) |
| CC(=O)N[C@@H](Cc1ccc(-c2ccccc2)cc1)C(=O)N[C@@H](CCCNC(=N)N)C(=O)N[C@@H](Cc1ccc(-c2ccccc2)cc1)C(=O)NCCCCNC(=N)N [Compound 23] | 12.5 (≈ 9.69 µg/mL) |
| N=C(N)NCCCCNC(=O)[C@H](Cc1ccc(-c2ccccc2)cc1)NC(=O)[C@@H](CCCNC(=N)N)NC(=O)[C@@H](N)Cc1ccc(-c2ccccc2)cc1 [Compound 3] | 25 (≈ 18.3 µg/mL) |
| N=C(N)NCCCCNC(=O)[C@H](Cc1ccc2ccccc2c1)NC(=O)[C@H](CCCNC(=N)N)NC(=O)[C@@H](N)Cc1ccc(-c2ccccc2)cc1 [Compound 9] | 50 (≈ 35.3 µg/mL) |
| N=C(N)NCCCCNC(=O)[C@H](Cc1ccccc1)NC(=O)[C@H](CCCNC(=N)N)NC(=O)[C@@H](N)Cc1ccc(-c2ccccc2)cc1 [Compound 8] (H-[Bip]-Arg-Phe-Agmatine) | 25 (≈ 16.4 µg/mL) |
| N=C(N)NCCCCNC(=O)[C@H](Cc1ccc(-c2ccccc2)cc1)NC(=O)[C@H](CCCNC(=N)N)NC(=O)[C@H](N)Cc1ccc(-c2ccccc2)cc1 [Compound 4] | 25 (≈ 18.3 µg/mL) |
| N=C(N)NCCCCNC(=O)[C@H](Cc1ccc(-c2ccccc2)cc1)NC(=O)[C@H](CCCN)NC(=O)[C@@H](N)Cc1ccc(-c2ccccc2)cc1 [Compound 14] (H-[Bip]-[Orn]-[Bip]-Agmatine) | 12.5 (≈ 8.64 µg/mL) |
| N=C(N)NCCCCNC(=O)[C@H](Cc1ccc(-c2ccccc2)cc1)NC(=O)[C@H](CNC(=N)N)NC(=O)[C@@H](N)Cc1ccc(-c2ccccc2)cc1 [Compound 16] | 25 (≈ 17.6 µg/mL) |
| N=C(N)NCCC[C@H](NC(=O)[C@@H](N)Cc1ccc(-c2ccccc2)cc1)C(=O)N[C@@H](Cc1ccc(-c2ccccc2)cc1)C(=O)N[C@H]1CC[C@@H](NC(=N)N)CC1 [Compound 6] | 6.25 (≈ 4.74 µg/mL) |

From patent publication US10787483B2, “Antimicrobial peptidomimetics” (Agency for Science, Technology and Research, priority 2014, dated 2020)
